The record followed here is US9766236B2, “Taste receptor internalization assay” (PepsiCo, Inc., priority 2013, dated 2017).

SMILES strings stand for the structures. Residues, ends and D or L forms follow the SMILES beside them.

In one test the target is T1, T2R14 (Homo sapiens, UniProt Q9NYV8).
T1 construct: These cells express the bitter receptors T2R1, T2R3, T2R4, T2R5, T2R7, T2R8, T2R9, T2R10, T2R13, T2R14; endogenous in cells; host or cells: NCI-H716 (ATCC CCL-251)
T1 sequence (Q9NYV8 1-317): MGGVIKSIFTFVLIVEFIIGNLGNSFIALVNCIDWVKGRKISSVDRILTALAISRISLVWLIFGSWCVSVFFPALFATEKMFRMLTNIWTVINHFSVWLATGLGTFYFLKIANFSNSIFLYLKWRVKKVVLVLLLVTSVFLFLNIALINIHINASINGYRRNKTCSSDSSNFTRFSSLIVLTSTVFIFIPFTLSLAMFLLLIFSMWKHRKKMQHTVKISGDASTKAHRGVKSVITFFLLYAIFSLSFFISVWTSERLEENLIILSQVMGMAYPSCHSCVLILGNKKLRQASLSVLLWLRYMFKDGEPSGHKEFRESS
Put plainly: High-content imaging ring assay for T2R14 internalization in NCI-H716 cells. In kind it is cell-based. Particulars: compounds used at 10 mM, 37° C., immunofluorescence. An excerpt:
The internalization assay disclosed herein, also called a “ring assay,” detects localization of receptors using antibodies specific for the receptors. A first detectable label, specific for nucleic acid (e.g., DAPI, Hoechst 33342, DRAQ5, DRAQ7, DRAQ9), is used to label cell nuclei; this labeling provides information such as the number of cells in a field and differentiates between the nuclear (e.g., DAPI-positive) and cytoplasmic (e.g., DAPI-negative) compartments. Antibodies which specifically bind to a taste receptor are used in conjunction with secondary antibodies conjugated with a second detectable label which can be differentiated from the first detectable label (e.g., FITC, TRITC, Cy3, Cy5, Alexa 350, 488, 546, 555, 568, 594, 633, 647). Diffuse circle staining is observed in the absence of a stimulus (e.g., in the presence of buffer alone). In the presence of a stimulus, however, a “ring” of internalized receptors is visualized. In some embodiments, ring-positive cells are calculated by correlation coefficient for pixel values of the nuclear and receptor signals. The extent of internalization can be expressed as percentage (mean±SD) of cells showing a continuous ring staining from multiple (e.g., quadruplicate) data points. NCI-H716 cell were grown in RPMI1690 media supplemented with 10% fetal bovine serum. Cells were seeded at density of 20,000 cells/well on PDL-coated 384-well plates. […] Alexa 488-conjugated antibodies and Hoechst 33342 were from Life Technology. 20,000 cells in PBS+10% FBS were plated on clear-bottom, PDL-coated, black-wall 384-well plates suitable for HCA imaging. For […] studies compounds were added to the cells. Stock solutions of all compounds were diluted in dimethyl sulfoxide (DMSO) and used at 10 mM. Control groups of cells also received DMSO (0.1%) in medium. NCI-H716 cells were stimulated with RebA (Purecircle) at 10 mM for indicating time points at 37° C. The cells were then fixed and processed for indirect immunofluorescence with antibodies against bitter receptor […]. All images were acquired with a 20× objective using ImageXpress Micro automated microscope. Hoechst 33342 staining is pseudo-colored blue and antibody specific staining is pseudo-colored green. […] The extent of internalization is expressed as the percentage (means±S.D.) of cells showing a continuous “Ring” staining from quadruplicate data points. Recycling of […] receptor correlates with decreased number of “Ring”-positive cells. Statistical analyses and graphs were made with Tibco Spotfire or GraphPad Prism.

For another test, the target named is T2, GLUT4 (Homo sapiens, UniProt P14672).
T2 construct: we tested internalization of endogenous GLUT4 in NCI-H716 cells; endogenous in cells; host or cells: NCI-H716 (ATCC CCL-251)
T2 sequence (P14672 1-509): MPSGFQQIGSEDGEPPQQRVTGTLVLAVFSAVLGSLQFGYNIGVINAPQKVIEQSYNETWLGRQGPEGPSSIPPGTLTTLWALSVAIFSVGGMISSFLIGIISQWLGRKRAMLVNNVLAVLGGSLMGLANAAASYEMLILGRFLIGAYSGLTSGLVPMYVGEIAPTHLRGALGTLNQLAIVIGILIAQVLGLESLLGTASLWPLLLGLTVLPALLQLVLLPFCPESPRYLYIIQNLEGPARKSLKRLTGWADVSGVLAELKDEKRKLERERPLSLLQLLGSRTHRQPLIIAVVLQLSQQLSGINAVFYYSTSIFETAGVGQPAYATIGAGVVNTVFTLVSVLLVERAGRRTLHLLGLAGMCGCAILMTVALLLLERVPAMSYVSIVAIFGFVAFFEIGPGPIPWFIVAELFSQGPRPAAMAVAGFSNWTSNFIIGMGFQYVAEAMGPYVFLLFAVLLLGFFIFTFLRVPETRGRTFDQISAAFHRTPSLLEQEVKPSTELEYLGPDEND
Put plainly: High-content imaging ring assay for GLUT4 internalization in NCI-H716 cells. In kind it is cell-based. Particulars: endogenous GLUT4, FIG. 4B. An excerpt:
The internalization assay disclosed herein, also called a “ring assay,” detects localization of receptors using antibodies specific for the receptors. A first detectable label, specific for nucleic acid (e.g., DAPI, Hoechst 33342, DRAQ5, DRAQ7, DRAQ9), is used to label cell nuclei; this labeling provides information such as the number of cells in a field and differentiates between the nuclear (e.g., DAPI-positive) and cytoplasmic (e.g., DAPI-negative) compartments. Antibodies which specifically bind to a taste receptor are used in conjunction with secondary antibodies conjugated with a second detectable label which can be differentiated from the first detectable label (e.g., FITC, TRITC, Cy3, Cy5, Alexa 350, 488, 546, 555, 568, 594, 633, 647). Diffuse circle staining is observed in the absence of a stimulus (e.g., in the presence of buffer alone). In the presence of a stimulus, however, a “ring” of internalized receptors is visualized. In some embodiments, ring-positive cells are calculated by correlation coefficient for pixel values of the nuclear and receptor signals. The extent of internalization can be expressed as percentage (mean±SD) of cells showing a continuous ring staining from multiple (e.g., quadruplicate) data points.
To explore further the role of GLUT4 in signaling by artificial sweeteners, we tested internalization of endogenous GLUT4 in NCI-H716 cells.

As to `C=C1C[C@@]23CC[C@H]4[C@@](C)(CCC[C@@]4(C)C(=O)O[C@@H]4O[C@H](CO)[C@@H](O)[C@H](O)[C@H]4O)[C@@H]2CC[C@]1(O[C@@H]1O[C@H](CO)[C@@H](O)[C@H](O[C@@H]2O[C@H](CO)[C@@H](O)[C@H](O)[C@H]2O)[C@H]1O[C@@H]1O[C@H](CO)[C@@H](O)[C@H](O)[C@H]1O)C3` [RebA], the “T2R14 internalization ("Ring"-positive cells)” value (shortened to “T2R14 internalization”) is recorded as “T2R14 internalization increases” on T2R14 (FIG. 2) and “induces T2R14 internalization” on T2R14 (FIG. 2, listed as Reb A).

Take `CC1=CC(=O)[N-]S(=O)(=O)O1.[K+]` [Ace-K]: at GLUT4, the “GLUT4 internalization ("Ring"-positive cells)” value (shortened to “GLUT4 internalization”) is given as “GLUT4 internalization increased”.

On to `C=C1C[C@@]23CC[C@H]4[C@@](C)(CCC[C@@]4(C)C(=O)O[C@@H]4O[C@H](CO)[C@@H](O)[C@H](O)[C@H]4O)[C@@H]2CC[C@]1(O[C@@H]1O[C@H](CO)[C@@H](O)[C@H](O[C@@H]2O[C@H](CO)[C@@H](O)[C@H](O)[C@H]2O)[C@H]1O[C@@H]1O[C@@H](C)[C@H](O)[C@@H](O)[C@H]1O)C3` [RebC], for which, at T2R14 (FIG. 2), the “T2R14 internalization” value is listed as “T2R14 internalization increases”.

Turning to `COC(=O)[C@H](Cc1ccccc1)NC(=O)[C@@H](N)CC(=O)O` [aspartame] (H-Asp-Phe-OMe), the “GLUT4 internalization” value at GLUT4 is recorded as “GLUT4 internalization increased”.

With `C=C1C[C@@]23CC[C@H]4[C@@](C)(CCC[C@@]4(C)C(=O)O[C@@H]4O[C@H](CO)[C@@H](O)[C@H](O)[C@H]4O[C@@H]4O[C@H](CO)[C@@H](O)[C@H](O)[C@H]4O)[C@@H]2CC[C@]1(O[C@@H]1O[C@H](CO)[C@@H](O)[C@H](O[C@@H]2O[C@H](CO)[C@@H](O)[C@H](O)[C@H]2O)[C@H]1O[C@@H]1O[C@H](CO)[C@@H](O)[C@H](O)[C@H]1O)C3` [RebD], at T2R14 (FIG. 2), the “T2R14 internalization” value is reported as “internalization was not observed”.

On to `O=C1NS(=O)(=O)c2ccccc21` [saccharine], for which the “GLUT4 internalization” value at GLUT4 is recorded as “GLUT4 internalization increased”.
